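In this assay, cells in 96-well plates receive the compound at five concentrations for 48 hours. Endpoints are linearly interpolated between the surrounding concentrations. The concentration for full growth arrest is given as TGI.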
How the values were obtained:
Test in all cases: NCI tumour cell line growth inhibition, 48 h
UACC-62 melanoma = test system: UACC-62 melanoma
SNB-75 CNS = test system: SNB-75 CNS
SR leukemia = test system: SR leukemia
NCI-H460 lung = test system: NCI-H460 lung
NCI-H226 lung = test system: NCI-H226 lung
HT29 colon = test system: HT29 colon
LXFL 529 NSCLC = test system: LXFL 529 NSCLC
NCI-H522 lung = test system: NCI-H522 lung
RXF 393 renal = test system: RXF 393 renal
SNB-19 CNS = test system: SNB-19 CNS
A549 NSCLC = test system: A549 NSCLC
CAKI-1 renal = test system: CAKI-1 renal
SW-620 colon = test system: SW-620 colon
ACHN renal = test system: ACHN renal
KM12 colon = test system: KM12 colon
SK-MEL-28 melanoma = test system: SK-MEL-28 melanoma
UACC-257 melanoma = test system: UACC-257 melanoma
COLO 205 colon = test system: COLO 205 colon
MALME-3M melanoma = test system: MALME-3M melanoma
KM20L2 colon = test system: KM20L2 colon
CCRF-CEM leukemia = test system: CCRF-CEM leukemia
OVCAR-8 ovarian = test system: OVCAR-8 ovarian
HL-60(TB) leukemia = test system: HL-60(TB) leukemia
SK-MEL-5 melanoma = test system: SK-MEL-5 melanoma
U251 CNS = test system: U251 CNS
HOP-18 NSCLC = test system: HOP-18 NSCLC
SK-MEL-2 melanoma = test system: SK-MEL-2 melanoma
HOP-92 NSCLC = test system: HOP-92 NSCLC
OVCAR-5 ovarian = test system: OVCAR-5 ovarian
SF-268 CNS = test system: SF-268 CNS
HOP-62 NSCLC = test system: HOP-62 NSCLC
EKVX NSCLC = test system: EKVX NSCLC
DMS 114 small cell lung = test system: DMS 114 small cell lung
OVCAR-4 ovarian = test system: OVCAR-4 ovarian
LOX IMVI melanoma = test system: LOX IMVI melanoma
786-0 renal = test system: 786-0 renal
A498 renal = test system: A498 renal
SK-OV-3 ovarian = test system: SK-OV-3 ovarian
OVCAR-3 ovarian = test system: OVCAR-3 ovarian
UO-31 renal = test system: UO-31 renal
M14 melanoma = test system: M14 melanoma
HCT-15 colon = test system: HCT-15 colon
SF-295 CNS = test system: SF-295 CNS
NCI-H23 lung = test system: NCI-H23 lung
HCC-2998 colon = test system: HCC-2998 colon
DLD-1 colon = test system: DLD-1 colon
RPMI-8226 leukemia = test system: RPMI-8226 leukemia
IGROV1 ovarian = test system: IGROV1 ovarian
SF-539 CNS = test system: SF-539 CNS
DMS 273 small cell lung = test system: DMS 273 small cell lung
SNB-78 CNS = test system: SNB-78 CNS
TK-10 renal = test system: TK-10 renal
SN12C renal = test system: SN12C renal
M19-MEL melanoma = test system: M19-MEL melanoma
RXF-631 renal = test system: RXF-631 renal
K-562 leukemia = test system: K-562 leukemia
HCT-116 colon = test system: HCT-116 colon
MCF7 breast = test system: MCF7 breast
DU-145 prostate = test system: DU-145 prostate
T-47D breast = test system: T-47D breast
HS 578T breast = test system: HS 578T breast
NCI/ADR-RES ovarian = test system: NCI/ADR-RES ovarian
PC-3 prostate = test system: PC-3 prostate
MOLT-4 leukemia = test system: MOLT-4 leukemia
MDA-MB-435 = test system: MDA-MB-435
MDA-MB-231 breast = test system: MDA-MB-231 breast
XF 498 CNS = test system: XF 498 CNS
MDA-N = test system: MDA-N
BT-549 breast = test system: BT-549 breast
P388 leukemia = test system: P388 leukemia

Measured: TGI

CC(C)NC(C)Cc1ccccc1 (centres undefined)
> 100 µM: UACC-62 melanoma | SNB-75 CNS | SR leukemia | NCI-H460 lung | NCI-H226 lung | HT29 colon | LXFL 529 NSCLC | NCI-H522 lung | RXF 393 renal | SNB-19 CNS | A549 NSCLC | CAKI-1 renal | SW-620 colon | ACHN renal | KM12 colon | SK-MEL-28 melanoma | UACC-257 melanoma | COLO 205 colon | MALME-3M melanoma | KM20L2 colon | CCRF-CEM leukemia | OVCAR-8 ovarian | HL-60(TB) leukemia | SK-MEL-5 melanoma | U251 CNS | HOP-18 NSCLC | SK-MEL-2 melanoma | HOP-92 NSCLC | OVCAR-5 ovarian | SF-268 CNS | HOP-62 NSCLC | EKVX NSCLC | DMS 114 small cell lung | OVCAR-4 ovarian | LOX IMVI melanoma | 786-0 renal | A498 renal | SK-OV-3 ovarian | OVCAR-3 ovarian | UO-31 renal | M14 melanoma | HCT-15 colon | SF-295 CNS | NCI-H23 lung | HCC-2998 colon | DLD-1 colon | RPMI-8226 leukemia | IGROV1 ovarian | SF-539 CNS | DMS 273 small cell lung | SNB-78 CNS | TK-10 renal | SN12C renal | M19-MEL melanoma | RXF-631 renal | K-562 leukemia | HCT-116 colon

Cc1oc2c(c1C(=O)c1ccccc1)C(=O)c1ccccc1C2=O
21 µM: U251 CNS
8.36 µM: NCI-H23 lung
40.2 µM: A549 NSCLC
18.7 µM: KM12 colon | HCT-15 colon
9.12 µM: CAKI-1 renal
3.1 µM: LXFL 529 NSCLC
2.97 µM: MDA-MB-435
4.59 µM: SW-620 colon
10 µM: DLD-1 colon
9.95 µM: OVCAR-4 ovarian
4.15 µM: SK-MEL-5 melanoma
3.9 µM: MDA-N
4.53 µM: MALME-3M melanoma
7.72 µM: UACC-62 melanoma
8.03 µM: DMS 114 small cell lung
10.1 µM: M14 melanoma
7.52 µM: LOX IMVI melanoma
22.4 µM: HOP-62 NSCLC | UO-31 renal
6.38 µM: MOLT-4 leukemia
4.93 µM: M19-MEL melanoma
7.04 µM: T-47D breast
24.6 µM: DU-145 prostate
24.7 µM: SF-539 CNS
29.1 µM: HCC-2998 colon
10.5 µM: UACC-257 melanoma
5.89 µM: K-562 leukemia
33.9 µM: A498 renal
23.7 µM: SNB-19 CNS
34.2 µM: NCI-H460 lung
20.7 µM: NCI/ADR-RES ovarian | SK-OV-3 ovarian
8.2 µM: RXF 393 renal
24.3 µM: SK-MEL-28 melanoma
19.9 µM: BT-549 breast
10.6 µM: MCF7 breast | 786-0 renal
6.22 µM: OVCAR-3 ovarian
25.2 µM: SN12C renal
13.6 µM: SNB-75 CNS
8.76 µM: HCT-116 colon
36.5 µM: COLO 205 colon
18.6 µM: OVCAR-8 ovarian
31.5 µM: OVCAR-5 ovarian
> 36.6 µM: SR leukemia
23.8 µM: RPMI-8226 leukemia
30.4 µM: HOP-18 NSCLC
5.86 µM: NCI-H522 lung
21.7 µM: PC-3 prostate
33.2 µM: TK-10 renal
4.65 µM: HOP-92 NSCLC
39.6 µM: HT29 colon
15.3 µM: ACHN renal
32.8 µM: SF-268 CNS
7.07 µM: MDA-MB-231 breast
> 100 µM: HS 578T breast | SNB-78 CNS | RXF-631 renal
29.6 µM: EKVX NSCLC
5.18 µM: XF 498 CNS
23.3 µM: NCI-H226 lung
31.9 µM: KM20L2 colon
5.76 µM: CCRF-CEM leukemia
26.7 µM: DMS 273 small cell lung
22.1 µM: SF-295 CNS
9.04 µM: SK-MEL-2 melanoma
17.1 µM: HL-60(TB) leukemia
15.9 µM: IGROV1 ovarian

C/C=C/C=C/[C@H]1Cc2cc(O)cc(O)c2O1
92.8 µM: HL-60(TB) leukemia
> 100 µM: UACC-62 melanoma | SNB-75 CNS | SR leukemia | NCI-H460 lung | HT29 colon | LXFL 529 NSCLC | NCI-H522 lung | RXF 393 renal | SNB-19 CNS | A549 NSCLC | CAKI-1 renal | SW-620 colon | ACHN renal | KM12 colon | SK-MEL-28 melanoma | UACC-257 melanoma | COLO 205 colon | MALME-3M melanoma | KM20L2 colon | CCRF-CEM leukemia | OVCAR-8 ovarian | SK-MEL-5 melanoma | U251 CNS | HOP-18 NSCLC | SK-MEL-2 melanoma | HOP-92 NSCLC | OVCAR-5 ovarian | SF-268 CNS | HOP-62 NSCLC | MOLT-4 leukemia | EKVX NSCLC | DMS 114 small cell lung | OVCAR-4 ovarian | LOX IMVI melanoma | 786-0 renal | A498 renal | SK-OV-3 ovarian | OVCAR-3 ovarian | UO-31 renal | M14 melanoma | HCT-15 colon | SF-295 CNS | NCI-H23 lung | DLD-1 colon | IGROV1 ovarian | SF-539 CNS | DMS 273 small cell lung | SNB-78 CNS | XF 498 CNS | TK-10 renal | SN12C renal | M19-MEL melanoma | RXF-631 renal | K-562 leukemia | HCT-116 colon

C=C1CC(OC)(C(O)C(=O)N[C@H]2OCO[C@H]3C2O[C@H](C[C@@H](CO)OC)C(C)(C)C3OC)O[C@H](C)[C@@H]1C (some centres undefined)
< 0.00932 µM: UACC-62 melanoma | SNB-75 CNS | NCI-H460 lung | NCI-H226 lung | HT29 colon | RXF 393 renal | SNB-19 CNS | A549 NSCLC | CAKI-1 renal | SW-620 colon | UACC-257 melanoma | COLO 205 colon | KM20L2 colon | SK-MEL-5 melanoma | U251 CNS | HOP-18 NSCLC | OVCAR-4 ovarian | LOX IMVI melanoma | A498 renal | SK-OV-3 ovarian | OVCAR-3 ovarian | SF-295 CNS | DLD-1 colon | RPMI-8226 leukemia | IGROV1 ovarian | M19-MEL melanoma | HCT-116 colon
0.016 µM: NCI/ADR-RES ovarian
0.0114 µM: SN12C renal
> 93.2 µM: MCF7 breast | P388 leukemia | MOLT-4 leukemia | K-562 leukemia
0.0532 µM: CCRF-CEM leukemia

Cc1[nH]n(-c2ccccc2)c(=S)c1C(=O)c1ccccc1
44.9 µM: A498 renal
61.6 µM: RXF-631 renal
99.1 µM: DMS 114 small cell lung
60.9 µM: DLD-1 colon
64.8 µM: SNB-78 CNS
57 µM: CCRF-CEM leukemia
79.4 µM: MOLT-4 leukemia
93.7 µM: M14 melanoma
37.2 µM: LXFL 529 NSCLC
54.9 µM: EKVX NSCLC
10.8 µM: RXF 393 renal
77.1 µM: HCC-2998 colon
> 100 µM: UACC-62 melanoma | SNB-75 CNS | NCI-H522 lung | SNB-19 CNS | A549 NSCLC | CAKI-1 renal | SW-620 colon | ACHN renal | KM12 colon | SK-MEL-28 melanoma | UACC-257 melanoma | COLO 205 colon | MALME-3M melanoma | KM20L2 colon | OVCAR-8 ovarian | HL-60(TB) leukemia | SK-MEL-5 melanoma | U251 CNS | SK-MEL-2 melanoma | OVCAR-5 ovarian | SF-268 CNS | OVCAR-4 ovarian | LOX IMVI melanoma | SK-OV-3 ovarian | UO-31 renal | HCT-15 colon | SF-295 CNS | NCI-H23 lung | IGROV1 ovarian | SF-539 CNS | DMS 273 small cell lung | XF 498 CNS | K-562 leukemia
45.1 µM: SN12C renal
94.4 µM: TK-10 renal
50.2 µM: RPMI-8226 leukemia

Reference: PubChem BioAssay (NCI)
